According to US8580829B2 (Boehringer Ingelheim International GmbH, priority 2010, dated 2013):
Where two headings read alike, the source gives them in different places.

Columns and labels:
[1] = target: T1, recombinant human FLAP protein (Homo sapiens, UniProt P20292); test: FLAP binding assay (Scintillation Proximity Assay, displacement of [125I]L-691,831); conditions: recombinant human FLAP membranes, [125I]L-691,831 probe; read-out: FLAP SPA IC50
T1 construct: made in house; host or cells: Sf9 insect cells (100,000 x g membrane fraction)
T1 sequence (P20292 1-161): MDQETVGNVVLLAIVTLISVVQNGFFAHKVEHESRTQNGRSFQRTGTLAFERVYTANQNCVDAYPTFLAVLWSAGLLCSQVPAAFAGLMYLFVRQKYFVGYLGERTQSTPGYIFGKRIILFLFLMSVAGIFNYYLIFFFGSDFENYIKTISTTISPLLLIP
Procedure, shortened: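 WGA scintillation proximity beads were stirred 1 h with 5 μg of FLAP-containing membrane protein. The membranes came from baculovirus Sf9 cells, Dounce-lysed and spun to a 100,000×g pellet in buffer at pH 7.5.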

[2] = system: synthesis of LTB4 in human whole blood; test: human whole blood LTB4 production inhibition assay; format: cell-based; conditions: heparinized human whole blood, calcimycin 20 μM, read-out: hWB LTB4 IC50
Procedure, shortened: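 LTB4 levels in plasma were measured by antibody-based HTRF after heparinized human whole blood, pretreated with compound (15 min, 37° C), was challenged with 20 μM calcimycin for 30 min at 37° C.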

| IC50 [1] | IC50 ([2]; Homo sapiens) | Structure (SMILES) | IC50 [2] |
| --- | --- | --- | --- |
| 6.8 nM | 450 nM | Nc1ncc(-c2ccc(C3(c4noc(-c5ccc6nccn6c5)n4)CCC3)cc2)cn1 [Example 73, 5-{4-[1-(5-Imidazo[1,2-a]pyridin-6-yl-1,2,4-oxadiazol-3-yl)-cyclobutyl]-phenyl}-pyrimidin-2-ylamine] |  |
| 1.2 nM | 79 nM | Nc1ncc(-c2ccc(C3(c4noc(-c5cnc(N6CC(O)C6)cn5)n4)CCC3)cc2)cn1 [Example 86, 1-[5-(3-{1-[4-(2-Amino-pyrimidin-5-yl)-phenyl]-cyclobutyl}-1,2,4-oxadiazol-5-yl)-pyrazin-2-yl]-azetidin-3-ol] |  |
| 7 nM | 2000 nM | Nc1ncc(-c2ccc(C3(c4noc(-c5c[nH]c(=O)[nH]5)n4)CCC3)cc2)cn1 [Example 9, 4-(3-{1-[4-(2-Amino-pyrimidin-5-yl)-phenyl]-cyclobutyl}-1,2,4-oxadiazol-5-yl)-1,3-dihydro-imidazol-2-one] |  |
| 10.4 nM | 190 nM | CN(C)S(=O)(=O)n1cc(-c2nc(C3(c4ccc(-c5cnc(N)nc5)cc4)CCC3)no2)cn1 [Example 135] |  |
| 12 nM | 800 nM | CS(=O)(=O)c1cccc(-c2nc(C3(c4ccc(-c5cnc(N)nc5)cc4)CCC3)no2)c1 [Example 39, 5-(4-{1-[5-(3-Methanesulfonyl-phenyl)-1,2,4-oxadiazol-3-yl]-cyclobutyl}-phenyl)-pyrimidin-2-ylamine] |  |
| 1.3 nM | 71 nM | Nc1ncc(-c2ccc(C3(c4noc(-c5cnc(N6CCOCC6)cn5)n4)CCC3)cc2)cn1 [Example 85, 5-(4-{1-[5-(5-Morpholin-4-yl-pyrazin-2-yl)-1,2,4-oxadiazol-3-yl]-cyclobutyl}-phenyl)-pyrimidin-2-ylamine] |  |
| 7.5 nM | 1500 nM | Nc1ncc(-c2ccc(C3(c4noc(-c5ccc(Cl)cc5)n4)CCC3)cc2)cn1 [Example 46, 5-(4-{1-[5-(4-Chloro-phenyl)-1,2,4-oxadiazol-3-yl]-cyclobutyl}-phenyl)-pyrimidin-2-ylamine] |  |
| 13 nM | 2700 nM | Nc1ncc(-c2ccc(C3(c4noc(-c5nc[nH]n5)n4)CCC3)cc2)cn1 [Example 96, 5-(4-{1-[5-(1H-1,2,4-Triazol-3-yl)-1,2,4-oxadiazol-3-yl]-cyclobutyl}-phenyl)-pyrimidin-2-ylamine] |  |
| 2.6 nM | > 5000 nM | Nc1ncc(-c2ccc(C3(c4noc(-c5cc(Cl)c[nH]c5=O)n4)CCC3)cc2)cn1 [Example 191, 3-(3-{1-[4-(2-Amino-pyrimidin-5-yl)-phenyl]-cyclobutyl}-1,2,4-oxadiazol-5-yl)-5-chloro-1H-pyridin-2-one] |  |
| 2.4 nM | 27 nM | Cn1cc(-c2nc(C3(c4ccc(-c5cnc6[nH]ccc6n5)cc4)CCC3)no2)cn1 [Example 262, 2-(4-{1-[5-(1-Methyl-1H-pyrazol-4-yl)-[1,2,4]oxadiazol-3-yl]-cyclobutyl}-phenyl)-5H-pyrrolo[2,3-b]pyrazine] |  |
| 2.6 nM | 150 nM | Nc1cnc(-c2ccc(C3(c4noc(-c5cnc(N6CCNCC6)cn5)n4)CCC3)cc2)cn1 [Example 302, 5-(4-{1-[5-(3,4,5,6-Tetrahydro-2H-[1,2′]bipyrazinyl-5′-yl)-[1,2,4]oxadiazol-3-yl]-cyclobutyl}-phenyl)-pyrazin-2-ylamine] |  |
| 14 nM | 200 nM | Nc1ncc(-c2ccc(C3(c4noc(N5CCCC(CO)C5)n4)CCC3)cc2)cn1 (centres unmarked) [Example 286, [1-(3-{1-[4-(2-Amino-pyrimidin-5-yl)-phenyl]-cyclobutyl}-[1,2,4]oxadiazol-5-yl)-piperidin-3-yl]-methanol] |  |
| 8.2 nM | 88 nM | CN(C(=O)Cn1cc(-c2nc(C3(c4ccc(-c5cnc(N)nc5)cc4)CCC3)no2)cn1)C1CCCOC1 (centres unmarked) [Example 247, 2-[4-(3-{1-[4-(2-Amino-pyrimidin-5-yl)-phenyl]-cyclobutyl}-[1,2,4]oxadiazol-5-yl)-pyrazol-1-yl]-N-methyl-N-(tetrahydro-pyran-3-yl)-acetamide] |  |
| 2.8 nM | 140 nM | CN(C)C(=O)Cn1cc(-c2nc(C3(c4ccc(-c5cnc6[nH]ccc6n5)cc4)CCC3)no2)cn1 [Example 275, N,N-Dimethyl-2-[4-(3-{1-[4-(5H-pyrrolo[2,3-b]pyrazin-2-yl)-phenyl]-cyclobutyl}-[1,2,4]oxadiazol-5-yl)-pyrazol-1-yl]-acetamide] |  |
| 2 nM | > 5000 nM | Nc1ncc(-c2ccc(C3(c4noc(-c5cnn(CC(=O)NC6CCNCC6)c5)n4)CCC3)cc2)cn1 [Example 237, 2-[4-(3-{1-[4-(2-Amino-pyrimidin-5-yl)-phenyl]-cyclobutyl}-[1,2,4]oxadiazol-5-yl)-pyrazol-1-yl]-N-piperidin-4-yl-acetamide] |  |
| 1 nM | 37 nM | N#CCn1cc(-c2nc(C3(c4ccc(-c5cnc(N)nc5)cc4)CCC3)no2)cn1 [Example 238, [4-(3-{1-[4-(2-Amino-pyrimidin-5-yl)-phenyl]-cyclobutyl}-[1,2,4]oxadiazol-5-yl)-pyrazol-1-yl]-acetonitrile] |  |
| 1.2 nM | 32 nM | COCCNc1ccc(-c2nc(C3(c4ccc(-c5cnc(N)nc5)cc4)CCC3)no2)nn1 [Example 111, [6-(3-{1-[4-(2-amino-pyrimidin-5-yl)-phenyl]-cyclobutyl}-1,2,4-oxadiazol-5-yl)-pyridazin-3-yl]-(2-methoxy-ethyl)-amine] |  |
| 3 nM | 1300 nM | Cn1cc(-c2nc(C3(c4ccc(-c5cnc(N)nc5)cc4)CCC3)no2)ncc1=O [Example 31, 5-(3-{1-[4-(2-Amino-pyrimidin-5-yl)-phenyl]-cyclobutyl}-1,2,4-oxadiazol-5-yl)-1-methyl-1Hpyrazin-2-one] |  |
| 100 nM | 2200 nM | Cn1cc(-c2nc(C3(c4ccc(-c5cnc(N)nc5)cc4)CC3)no2)cn1 [Example 257, 5-(4-{1-[5-(1-Methyl-1H-pyrazol-4-yl)-[1,2,4]oxadiazol-3-yl]-cyclopropyl}-phenyl)-pyrimidin-2-ylamine] |  |
| 9.8 nM | 700 nM | Nc1ncc(-c2ccc(C3(c4noc(-c5cnn(C6CCNCC6)c5)n4)CCC3)cc2)cn1 [Example 233, 5-(4-{1-[5-(1-Piperidin-4-yl-1H-pyrazol-4-yl)-[1,2,4]oxadiazol-3-yl]-cyclobutyl}-phenyl)-pyrimidin-2-ylamine] |  |
| 36 nM | 2200 nM | CN(C)C(=O)Cn1cnc(-c2nc(C3(c4ccc(-c5cnc(N)nc5)cc4)CCC3)no2)c1 [Example 251, 2-[4-(3-{1-[4-(2-Amino-pyrimidin-5-yl)-phenyl]-cyclobutyl}-[1,2,4]oxadiazol-5-yl)-imidazol-1-yl]-N,N-dimethyl-acetamide] |  |
| 1.9 nM | 18 nM | Nc1ncc(-c2ccc(C3(c4noc(-c5cnn6cccnc56)n4)CCC3)cc2)cn1 [Example 72, 5-{4-[1-(5-Pyrazolo[1,5-a]pyrimidin-3-yl-1,2,4-oxadiazol-3-yl)-cyclobutyl]-phenyl}-pyrimidin-2-ylamine] |  |
| 12 nM | 100 nM | Cc1cc(-c2cnc(N)nc2)ccc1C1(c2noc(-c3cnn(C)c3)n2)CCC1 [Example 295] |  |
| 36 nM | 200 nM | Nc1ncc(-c2ccc(C3(c4noc(N5CC[C@H](O)C5)n4)CCC3)cc2)cn1 [Example 287, (S)-1-(3-{1-[4-(2-Amino-pyrimidin-5-yl)-phenyl]-cyclobutyl}-[1,2,4]oxadiazol-5-yl)-pyrrolidin-3-ol] |  |
| 3.3 nM | 250 nM | Nc1ncc(-c2ccc(C3(c4noc(-c5ccc(Cl)nc5)n4)CCC3)cc2)cn1 [Example 101, 5-(4-{1-[5-(6-Chloro-pyridin-3-yl)-1,2,4-oxadiazol-3-yl]-cyclobutyl}-phenyl)-pyrimidin-2-ylamine] |  |
| 2.2 nM | 44 nM | Cc1nc(-c2ccc(C3(c4noc(-c5cnn(C)c5)n4)CCC3)cc2)cnc1N [Example 222, 3-Methyl-5-(4-{1-[5-(1-methyl-1H-pyrazol-4-yl)-[1,2,4]oxadiazol-3-yl]-cyclobutyl}-phenyl)-pyrazin-2-ylamine] |  |
| 2.1 nM | 290 nM | Cc1ncc(-c2nc(C3(c4ccc(-c5cnc(N)nc5)cc4)CCC3)no2)[nH]1 [Example 10, 5-(4-{1-[5-(2-Methyl-3H-imidazol-4-yl)-1,2,4-oxadiazol-3-yl]-cyclobutyl}-phenyl)-pyrimidin-2-ylamine] |  |
| 7 nM | 110 nM | CNc1ncc(-c2ccc(C3(c4noc(-c5cnn(CC(=O)N(C)C)c5)n4)CCC3)cc2)cn1 [Example 276, N,N-Dimethyl-2-[4-(3-{1-[4-(2-methylamino-pyrimidin-5-yl)-phenyl]-cyclobutyl}-[1,2,4]oxadiazol-5-yl)-pyrazol-1-yl]-acetamide] |  |
| 8.5 nM | 400 nM | Nc1ncc(-c2ccc(C3(c4noc(-c5cccnn5)n4)CCC3)cc2)cn1 [Example 8, 5-{4-[1-(5-Pyridazin-3-yl-1,2,4-oxadiazol-3-yl)-cyclobutyl]-phenyl}-pyrimidin-2-ylamine] |  |
| 2.9 nM | 140 nM | Nc1ncc(-c2ccc(C3(c4noc(-c5cnc(N6CCC[C@@H]6CO)cn5)n4)CCC3)cc2)cn1 [Example 195, {(R)-1-[5-(3-{1-[4-(2-Amino-pyrimidin-5-yl)-phenyl]-cyclobutyl}-1,2,4-oxadiazol-5-yl)-pyrazin-2-yl]-pyrrolidin-2-yl}-methanol] |  |

| Structure (SMILES) | IC50 [1] | IC50 ([2]; Homo sapiens) | IC50 [2] |
| --- | --- | --- | --- |
| Nc1ncc(-c2ccc(C3(c4noc(-c5csc(C6CCNCC6)n5)n4)CCC3)cc2)cn1 [Example 269] | 5.6 nM |  | 320 nM |
